# Test results published in patent publication US20230107642A1 (Erasca, Inc., priority 2020, published 2023).
# Molecular target: T1, K-Ras G12C (Homo sapiens, UniProt P01116, G12C)
# T1 construct: This protein contained 188 amino acids in total, including an N-terminal 6-Histidine tag; made in house; host or cells: E. coli BL21
# Experiment: CAF assay (% CAF; method in Example 7, not in this part)
# Format: binding
# Conditions: 10 uM compound, 1 h incubation
row,"% CAF @ 10 uM, 1h",SMILES
1,71%,"C=CC(=O)N1CCN(c2nc(=O)n3c4c(c(-c5ccc(F)cc5F)c(C(F)(F)F)cc24)S[C@H](COC)C3)[C@@H](C)C1 [Example 507, (2S)-7-((S)-4-acryloyl-2-methylpiperazin-1-yl)-10-(2,4-difluorophenyl)-2-(methoxymethyl)-9-(trifluoromethyl)-2,3-dihydro-5H-[1,4]thiazino[2,3,4-ij]quinazolin-5-one]"
2,95%,"C=CC(=O)N1[C@H](C)CN(c2nc(=O)n3c4c(c(-c5ccc(F)cc5F)c(C(F)(F)F)cc24)SC[C@H](OC)C3)C[C@@H]1C [Example 524, (3R)-8-((3S,5R)-4-acryloyl-3,5-dimethylpiperazin-1-yl)-11-(2,4-difluorophenyl)-3-methoxy-10-(trifluoromethyl)-3,4-dihydro-2H,6H-[1,4]thiazepino[2,3,4-ij]quinazolin-6-one]"
3,96%,"C=CC(=O)N1CCN(c2nc(=O)n3c4c(c(-c5ccc(F)cc5F)c(Cl)cc24)SC[C@@H](OC)C3)CC1 [Example 504, (3S)-8-(4-acryloylpiperazin-1-yl)-10-chloro-11-(2,4-difluorophenyl)-3-methoxy-3,4-dihydro-2H,6H-[1,4]thiazepino[2,3,4-ij]quinazolin-6-one]"
4,83.2%,"C=CC(=O)N1C[C@H](C)N(c2nc(=O)n3c4c(c(-c5ccc(F)cc5)c(C(F)(F)F)cc24)SC[C@@H]3CN2CCN(CC(F)F)CC2)C[C@H]1C [Example 574, (S)-7-((2S,5R)-4-acryloyl-2,5-dimethylpiperazin-1-yl)-3-((4-(2,2-difluoroethyl)piperazin-1-yl)methyl)-10-(4-fluorophenyl)-9-(trifluoromethyl)-2H-[1,4]thiazino[2,3,4-ij]quinazolin-5(3H)-one]"
5,97%,"C=CC(=O)N1CCN(c2nc(=O)n3c4c(c(-c5ccc(F)cc5)c(C(F)(F)F)cc24)SC[C@H](OC)C3)[C@@H](C)C1 [Example 527, (R)-8-((S)-4-acryloyl-2-methylpiperazin-1-yl)-11-(4-fluorophenyl)-3-methoxy-10-(trifluoromethyl)-3,4-dihydro-2H,6H-[1,4]thiazepino[2,3,4-ij]quinazolin-6-one]"
6,78.5%,"C=CC(=O)N1CCN(c2nc(=O)n3c4c(c(-c5ccc(F)c6cccnc56)c(Cl)cc24)SCC3)[C@@H](C)C1 [Example 441, 7-((S)-4-acryloyl-2-methylpiperazin-1-yl)-9-chloro-10-(5-fluoroquinolin-8-yl)-2,3-dihydro-5H-[1,4]thiazino[2,3,4-ij]quinazolin-5-one]"
7,68.7%,"C=CC(=O)N1C[C@H](C)N(c2nc(=O)n3c4c(c(-c5ccc(F)cc5F)c(Cl)cc24)SC[C@@H]3COC)C[C@H]1C [Example 494, (3S)-7-((2S,5R)-4-acryloyl-2,5-dimethylpiperazin-1-yl)-9-chloro-10-(2,4-difluorophenyl)-3-(methoxymethyl)-2H-[1,4]thiazino[2,3,4-ij]quinazolin-5(3H)-one]"
8,60%,"C=CC(=O)N1C[C@H](C)N(c2nc(=O)n3c4c(c(-c5cc(F)c(F)cc5F)c(C(F)(F)F)cc24)SC[C@@H]3COC)C[C@H]1C [Example 491, (3S)-7-((2S,5R)-4-acryloyl-2,5-dimethylpiperazin-1-yl)-3-(methoxymethyl)-9-(trifluoromethyl)-10-(2,4,5-trifluorophenyl)-2H-[1,4]thiazino[2,3,4-ij]quinazolin-5(3H)-one]"
9,58.9%,"C=CC(=O)N1[C@H](C)CN(c2nc(=O)n3c4c(c(-c5cc(Cl)c(F)cc5F)c(C(F)(F)F)cc24)SC[C@@H]3CN(C)C)C[C@@H]1C [Example 587, (3S)-7-((3S,5R)-4-acryloyl-3,5-dimethylpiperazin-1-yl)-10-(5-chloro-2,4-difluorophenyl)-3-((dimethylamino)methyl)-9-(trifluoromethyl)-2H-[1,4]thiazino[2,3,4-ij]quinazolin-5(3H)-one]"
10,86%,"C=CC(=O)N1CCN(c2nc(=O)n3c4c(c(-c5ccc(F)cc5F)c(Cl)cc24)SC[C@H](OC)C3)CC1 [Example 525, (3R)-8-(4-acryloylpiperazin-1-yl)-10-chloro-11-(2,4-difluorophenyl)-3-methoxy-3,4-dihydro-2H,6H-[1,4]thiazepino[2,3,4-ij]quinazolin-6-one]"
11,97.4%,"C=CC(=O)N1C[C@H](C)N(c2nc(=O)n3c4c(c(-c5ccc(F)cc5F)c(C(F)(F)F)cc24)SC[C@@H]3CN2CCN(C3CC3)CC2)C[C@H]1C (single isomer, unassigned) [Example 581]"

# Same assay, conditions: 10 uM, 1 h; Table 3
row,"% CAF @ 10 uM, 1h",SMILES
1,41.4%,"C=CC(=O)N1CCN(c2nc(=O)n3c4c(c(-c5cc(OC(F)F)ccc5F)c(Cl)cc24)SCC3)[C@@H](C)C1 [Example 163, 7-((S)-4-acryloyl-2-methylpiperazin-1-yl)-9-chloro-10-(5-(difluoromethoxy)-2-fluorophenyl)-2,3-dihydro-5H-[1,4]thiazino[2,3,4-ij]quinazolin-5-one]"
2,51.9%,"C=CC(=O)N1CCN(c2nc(=O)n3c4c(c(-c5ccc(F)cc5F)c(Cl)cc24)SCC3)CC12CN(C)C2=O (centres unmarked) [Example 133, 7-(5-acryloyl-2-methyl-1-oxo-2,5,8-triazaspiro[3.5]nonan-8-yl)-9-chloro-10-(2,4-difluorophenyl)-2,3-dihydro-5H-[1,4]thiazino[2,3,4-ij]quinazolin-5-one]"
3,60%,"C=CC(=O)N1CCN(c2nc(=O)n3c4c(c(-c5cccc6cnn(C)c56)c(Cl)cc24)SCC3)[C@@H](C)C1 [Example 127, 7-((S)-4-acryloyl-2-methylpiperazin-1-yl)-9-chloro-10-(1-methyl-1H-indazol-7-yl)-2,3-dihydro-5H-[1,4]thiazino[2,3,4-ij]quinazolin-5-one]"
4,37.2%,"C=CC(=O)N1CCN(c2nc(=O)n3c4c(c(-c5c(C)ccc6[nH]ncc56)c(Cl)cc24)SCC3)[C@@H](C)C1 [Example 159, 7-((S)-4-acryloyl-2-methylpiperazin-1-yl)-9-chloro-10-(5-methyl-1H-indazol-4-yl)-2,3-dihydro-5H-[1,4]thiazino[2,3,4-ij]quinazolin-5-one]"
5,6.7%,"C=C(F)C(=O)N1CCN(c2nc(=O)n3c4c(c(-c5ccc(Cl)c(F)c5)c(Cl)cc24)SCC3)[C@@H](C)C1 [Example 78, (S)-9-chloro-10-(4-chloro-3-fluorophenyl)-7-(4-(2-fluoroacryloyl)-2-methylpiperazin-1-yl)-2,3-dihydro-5H-[1,4]thiazino[2,3,4-ij]quinazolin-3-one]"
6,90.6%,"C=CC(=O)N1CCN(c2nc(=O)n3c4c(c(-c5ccc(F)cc5F)c(Cl)cc24)SCC3)C[C@@H]1C [Example 140, 7-((S)-4-acryloyl-3-methylpiperazin-1-yl)-9-chloro-10-(2,4-difluorophenyl)-2,3-dihydro-5H-[1,4]thiazino[2,3,4-ij]quinazolin-5-one]"
7,27.4%,"C=CC(=O)N1CCN(c2nc(=O)n3c4c(c(-c5ccc(F)cc5F)c(Cl)cc24)SCC3)CC12CCNC2=O (centres unmarked) [Example 116, 7-(6-acryloyl-1-oxo-2,6,9-triazaspiro[4.5]decan-9-yl)-9-chloro-10-(2,4-difluorophenyl)-2,3-dihydro-5H-[1,4]thiazino[2,3,4-ij]quinazolin-5-one]"
8,85.8%,"C=CC(=O)N1CCN(c2nc(=O)n3c4c(c(-c5cc(Cl)c(F)cc5F)c(Cl)cc24)SCC3)[C@@H](C)C1 [Example 82, 7-((S)-4-acryloyl-2-methylpiperazin-1-yl)-9-chloro-10-(5-chloro-2,4-difluorophenyl)-2,3-dihydro-5H-[1,4]thiazino[2,3,4-ij]quinazolin-5-one]"
9,93.8%,"C=CC(=O)N1CCN(c2nc(=O)n3c4c(c(-c5cccc(Cl)c5F)c(Cl)cc24)SCC3)[C@@H](C)C1 [Example 174, 7-((S)-4-acryloyl-2-methylpiperazin-1-yl)-9-chloro-10-(3-chloro-2-fluorophenyl)-2,3-dihydro-5H-[1,4]thiazino[2,3,4-ij]quinazolin-5-one]"
10,69.8%,"C=CC(=O)N1CCN(c2nc(=O)n3c4c(c(-c5ccccc5C(F)(F)F)c(Cl)cc24)SCC3)[C@@H](C)C1 [Example 167, 7-((S)-4-acryloyl-2-methylpiperazin-1-yl)-9-chloro-10-(2-(trifluoromethyl)phenyl)-2,3-dihydro-5H-[1,4]thiazino[2,3,4-ij]quinazolin-5-one]"
11,86.8%,"C=CC(=O)N1CCN(c2nc(=O)n3c4c(c(-c5c(F)cc(F)cc5F)c(Cl)cc24)SC[C@H]3COC)[C@@H](C)C1 [Example 137, (R)-7-((S)-4-acryloyl-2-methylpiperazin-1-yl)-9-chloro-3-(methoxymethyl)-10-(2,4,6-trifluorophenyl)-2,3-dihydro-5H-[1,4]thiazino[2,3,4-ij]quinazolin-5-one]"
12,64%,"C=CC(=O)N1CCN(c2nc(=O)n3c4c(c(-c5ccc(F)cc5F)c(Cl)cc24)SCC3)[C@H](C)C1 [Example 158, 7-((R)-4-acryloyl-2-methylpiperazin-1-yl)-9-chloro-10-(2,4-difluorophenyl)-2,3-dihydro-5H-[1,4]thiazino[2,3,4-ij]quinazolin-5-one]"

# Same assay, conditions: 10 μM, 1 h; Table 4
row,"% CAF @ 10 μM, 1 h",SMILES
1,96.7%,"C=CC(=O)N1CCN(c2nc(=O)n3c4c(c(-c5c(F)cc(F)cc5F)c(Cl)cc24)SC[C@@H]3CC2CCN(C)CC2)[C@@H](C)C1 [Example 343, (S)-7-((S)-4-acryloyl-2-methylpiperazin-1-yl)-9-chloro-3-((1-methylpiperidin-4-yl)methyl)-10-(2,4,6-trifluorophenyl)-2H-[1,4]thiazino[2,3,4-ij]quinazolin-5(3H)-one]"
2,94%,"C=CC(=O)N1CCN(c2nc(=O)n3c4c(c(-c5ccc(F)cc5)c(Cl)cc24)SC[C@H]3CC2CCN(CC(F)F)CC2)[C@@H](C)C1 [Example 349, (R)-7-((S)-4-acryloyl-2-methylpiperazin-1-yl)-9-chloro-3-((1-(2,2-difluoroethyl)piperidin-4-yl)methyl)-10-(4-fluorophenyl)-2H-[1,4]thiazino[2,3,4-ij]quinazolin-5(3H)-one]"
3,86.8%,"C=CC(=O)N1CCN(c2nc(=O)n3c4c(c(-c5c(F)cc(F)cc5F)c(Cl)cc24)SC[C@H]3COC)[C@@H](C)C1 [Example 137, (R)-7-((S)-4-acryloyl-2-methylpiperazin-1-yl)-9-chloro-3-(methoxymethyl)-10-(2,4,6-trifluorophenyl)-2,3-dihydro-5H-[1,4]thiazino[2,3,4-ij]quinazolin-5-one]"
